Several values for one entry are separate records, joined by “and”; a condition that tells them apart may be missing. Equal values may be shown once. Toxic doses and inconclusive results are not listed. No stated cut-off is given here; in the data, active means T/C of 150% or more; inactive means T/C below 125%.
Tested on: L1210 leukemia ip in BDF1 mice, survival T/C
Test: NCI In Vivo Anticancer Drug Screen. Data for tumor model L1210 Leukemia (intraperitoneal) in B6D2F1 (BDF1) mice
Settings: endpoint: mean survival time, higher = longer survival
Method in brief: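 Value reflects the ratio of survival in compound-treated mice to survival in vehicle-treated controls, with both groups carrying the same transplanted tumor.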

[1] = dose: 100.0 mg/kg/injection, schedule: Q04DX003 (ip), vehicle: saline
[2] = dose: 200.0 mg/kg/injection, schedule: Q04DX003 (ip), vehicle: saline
[3] = dose: 400.0 mg/kg/injection, schedule: Q04DX003 (ip), vehicle: saline
[4] = dose: 100.0 mg/kg/injection, schedule: Q01DX001 (ip), vehicle: saline
[5] = dose: 100.0 mg/kg/injection, schedule: Q01DX009 (ip), vehicle: Klucel (hydroxypropylcellulose) (HPC)
[6] = dose: 200.0 mg/kg/injection, schedule: Q01DX009 (ip), vehicle: Klucel (hydroxypropylcellulose) (HPC)
[7] = dose: 400.0 mg/kg/injection, schedule: Q01DX009 (ip), vehicle: Klucel (hydroxypropylcellulose) (HPC)
[8] = dose: 100.0 mg/kg/injection, schedule: Q01DX001 (ip), vehicle: Klucel (hydroxypropylcellulose) (HPC)
[9] = dose: 200.0 mg/kg/injection, schedule: Q01DX001 (ip), vehicle: Klucel (hydroxypropylcellulose) (HPC)
[10] = dose: 400.0 mg/kg/injection, schedule: Q01DX001 (ip), vehicle: Klucel (hydroxypropylcellulose) (HPC)
[11] = dose: 50.0 mg/kg/injection, schedule: Q04DX003 (ip), vehicle: saline
[12] = dose: 100.0 mg/kg/injection, schedule: Q01DX001 (ip), vehicle: gum acacia
[13] = dose: 200.0 mg/kg/injection, schedule: Q01DX001 (ip), vehicle: gum acacia
[14] = dose: 400.0 mg/kg/injection, schedule: Q01DX001 (ip), vehicle: gum acacia
[15] = dose: 100.0 mg/kg/injection, schedule: Q01DX001 (ip), vehicle: carboxymethylcellulose (CMC)
[16] = dose: 200.0 mg/kg/injection, schedule: Q01DX001 (ip), vehicle: carboxymethylcellulose (CMC)
[17] = dose: 400.0 mg/kg/injection, schedule: Q01DX001 (ip), vehicle: carboxymethylcellulose (CMC)

Measured: T/C

O=C(C1C2CCC(CC2)C1C(=O)N1CCCCC1)N1CCCCC1 (configuration not stated)
inactive: [1] 108 % of control | [2] 100 % of control | [3] 100 % of control

CCN(CC)C(=O)Cn1cc(F)c(N)nc1=O
inactive: dose: 100.0 mg/kg/injection, schedule: Q01DX009 (ip), vehicle: saline 98 % of control | [1] 92 % of control | dose: 200.0 mg/kg/injection, schedule: Q01DX009 (ip), vehicle: saline 107 % of control | [2] 92 % of control | dose: 400.0 mg/kg/injection, schedule: Q01DX009 (ip), vehicle: saline 94 % of control | [3] 95 % of control

Nc1nc2ncc(CNc3ccc(C(=O)NC(CCC(=O)O)C(=O)O)cc3F)nc2c(=O)[nH]1 (configuration not stated)
inactive: dose: 50.0 mg/kg/injection, schedule: Q01DX001 (ip), vehicle: saline 109 % of control | [4] 105 % of control

CC(=O)N1CN(C(C)=O)CN(C(C)=O)C1
inactive: [5] 95 % of control | dose: 100.0 mg/kg/injection, schedule: Q04DX002 (ip), vehicle: saline with Tween-80 91 % of control | [6] 92 % of control | dose: 200.0 mg/kg/injection, schedule: Q04DX002 (ip), vehicle: saline with Tween-80 102 % of control | [7] 97 % of control | dose: 400.0 mg/kg/injection, schedule: Q04DX002 (ip), vehicle: saline with Tween-80 95 % of control

C/C(=N\N)C(=O)S(=O)(=O)c1c(C)cc(C)cc1C
inactive: [8] 97 % of control | [9] 97 % of control | [10] 101 % of control

CSc1nc2ncnn2c(=O)[nH]1
inactive: [11] 96 % of control | [1] 94 % of control | [2] 100 % of control | [3] 92 % of control

COc1ccc(NC(=O)c2cccc([N+](=O)[O-])c2)cc1
inactive: [5] 96 % of control | [6] 93 % of control | [7] 96 % of control

O=[N+]([O-])c1ccc(N/N=C(\Cc2ccccc2)CC(O)(C(F)(F)F)C(F)(F)F)c([N+](=O)[O-])c1
inactive: dose: 25.0 mg/kg/injection, schedule: Q01DX009 (ip), vehicle: gum acacia 92 % of control | dose: 50.0 mg/kg/injection, schedule: Q01DX009 (ip), vehicle: gum acacia 96 % of control | [12] 106 % of control | dose: 100.0 mg/kg/injection, schedule: Q01DX009 (ip), vehicle: gum acacia 98 % of control | [13] 100 % of control | dose: 200.0 mg/kg/injection, schedule: Q01DX009 (ip), vehicle: gum acacia 94 % of control | [14] 98 % of control | dose: 400.0 mg/kg/injection, schedule: Q01DX009 (ip), vehicle: gum acacia 93 % of control

COc1ccc(/C=C(C)/C=N/NC(=O)c2ccncc2)cc1OC
inactive: dose: 100.0 mg/kg/injection, schedule: Q04DX003 (ip), vehicle: saline with Tween-80 98 % of control | dose: 200.0 mg/kg/injection, schedule: Q04DX003 (ip), vehicle: saline with Tween-80 97 % of control | dose: 400.0 mg/kg/injection, schedule: Q04DX003 (ip), vehicle: saline with Tween-80 103 % of control

CCSCCC1(CCC(C)C)C(=O)NC(=Nc2ccccc2)NC1=O (configuration not stated)
inactive: [15] 90 % of control | [16] 88 % of control | [17] 96 % of control

N=C(N)c1ncn(C2CC(O)C(CO)O2)c1N (configuration not stated)
inactive: [4] 106 % of control | dose: 200.0 mg/kg/injection, schedule: Q01DX001 (ip), vehicle: saline 103 % of control

Nc1ncnc(N)c1NC(=O)c1cc(OCc2ccccc2)cc(OCc2ccccc2)c1
inactive: dose: 100.0 mg/kg/injection, schedule: Q04DX003 (ip), vehicle: DMSO 94 % of control | dose: 200.0 mg/kg/injection, schedule: Q04DX003 (ip), vehicle: DMSO 102 % of control | dose: 400.0 mg/kg/injection, schedule: Q04DX003 (ip), vehicle: DMSO 86 % of control

CCCCCCCCCCCCCNCCCCCCCCCCCCC
inactive: [1] 96 % of control | [2] 92 % of control | [3] 96 % of control

C[n+]1cc(I)cc2ccccc21
inactive: dose: 50.0 mg/kg/injection, schedule: Q01DX001 (ip), vehicle: carboxymethylcellulose (CMC) 97 % of control | [15] 103 % of control | [16] 103 % of control | [17] 101 % of control

CCCCCCCCCCCC(=O)SCCSC(=O)CCCCCCCCCCC
inactive: dose: 100.0 mg/kg/injection, schedule: Q04DX002 (ip), vehicle: other 94 % of control and 104 % of control | dose: 100.0 mg/kg/injection, schedule: Q04DX003 (ip), vehicle: other 86 % of control and 89 % of control | dose: 200.0 mg/kg/injection, schedule: Q04DX002 (ip), vehicle: other 113 % of control and 90 % of control | dose: 200.0 mg/kg/injection, schedule: Q04DX003 (ip), vehicle: other 96 % of control and 89 % of control | dose: 400.0 mg/kg/injection, schedule: Q04DX002 (ip), vehicle: other 103 % of control and 109 % of control | dose: 400.0 mg/kg/injection, schedule: Q04DX003 (ip), vehicle: other 89 % of control and 92 % of control

O=C(CCN1CCOCC1)c1csc2ccccc12
inactive: [15] 102 % of control | [16] 102 % of control | [17] 96 % of control

O=C(CCN1CCCCC1)c1ccccc1
inactive: dose: 5.0 mg/kg/injection, schedule: Q04DX003 (ip), vehicle: saline 96 % of control | dose: 10.0 mg/kg/injection, schedule: Q04DX003 (ip), vehicle: saline 103 % of control | dose: 20.0 mg/kg/injection, schedule: Q04DX003 (ip), vehicle: saline 94 % of control

Nc1c(Br)cc2c(c1Br)C(=O)c1cc(Br)ccc1-2
inactive: [15] 92 % of control | [16] 94 % of control | [17] 97 % of control

NNC12CC3CC(CC(C3)C1)C2
inactive: dose: 1.56 mg/kg/injection, schedule: Q01DX009 (ip), vehicle: saline 100 % of control | dose: 3.12 mg/kg/injection, schedule: Q01DX009 (ip), vehicle: saline 100 % of control | dose: 6.25 mg/kg/injection, schedule: Q01DX009 (ip), vehicle: saline 100 % of control | dose: 12.5 mg/kg/injection, schedule: Q01DX009 (ip), vehicle: saline 110 % of control and 90 % of control | dose: 12.5 mg/kg/injection, schedule: Q04DX003 (ip), vehicle: saline 105 % of control | dose: 25.0 mg/kg/injection, schedule: Q04DX003 (ip), vehicle: saline 118 % of control | [11] 96 % of control

CC(C)CCn1ccc(=O)[nH]c1=O
inactive: [8] 100 % of control | [9] 98 % of control | [10] 105 % of control

COc1cc(O)c(OC(C)=O)cc1OC
inactive: [12] 97 % of control | [13] 97 % of control | [14] 117 % of control

Cc1noc(/N=C/c2ccccc2)c1C
inactive: dose: 100.0 mg/kg/injection, schedule: Q01DX009 (ip), vehicle: other 95 % of control | [1] 103 % of control | dose: 200.0 mg/kg/injection, schedule: Q01DX009 (ip), vehicle: other 102 % of control | [2] 103 % of control | dose: 400.0 mg/kg/injection, schedule: Q01DX009 (ip), vehicle: other 107 % of control | [3] 96 % of control

Reference: PubChem BioAssay AID248 (DTP/NCI, 2004)
